Assay results reported in patent US9845322B2 (Hoffmann-La Roche Inc., priority 2016, dated 2017).
pIC50: −log10 of the molar value. Read-outs that look alike come from different tables or passages of the source.

Test system: HBsAg secretion in HepG2.2.15 cells
Test: HBsAg assay (chemiluminescence immunoassay of secreted HBsAg in culture supernatant)
Format: cell-based, HBV
Settings: concentration at which HBsAg secretion was reduced by 50% compared to the no drug control, read-out: IC50 (HBsAg assay)
Protocol: HepG2.2.15 cells (Acs et al. Proc Natl Acad Sci USA, 84, (1987), 4641-4), a constitutively HBV-expressing cell line were cultured in DMEM+Glutamax-I medium (Invitrogen, Carlsbad, Calif., USA), supplemented with 10% fetal bovine serum (Invitrogen) and G418 (Invitrogen) at a final concentration of 200 mg/L and maintained in 5% CO2 at 37° C.
HepG2.2.15 cells were seeded in duplicate into white, 96-well plates at 1.5×10^4 cells/well. The cells were treated with a three-fold serial dilution series of the compounds in DMSO. The final DMSO concentration in all wells was 1% and DMSO was used as no drug control.
The HBsAg chemiluminescence immunoassay (CLIA) kit (Autobio Diagnostics Co., Zhengzhou, China, Catalog number: CL0310-2) was used to measure the levels of secreted HBV antigens semi-quantitatively. For the detection 50 μL/well culture supernatant was used and HBsAg was quantified using HBsAg chemiluminescence immunoassay (CLIA) kit (Autobio Diagnostics Co., Zhengzhou, China, Catalog number: CL0310-2), 50 μL of the supernatant was transferred to the CLIA assay plate and 50 μL of enzyme conjugate reagent was added into each well. The plates were sealed and gently agitated for 1 hour at room temperature. The supernatant-enzyme-mixture was discarded and wells were washed 6 times with 300 μL of PBS. The residual liquid was removed by plating the CLIA plate […] on absorbent tissue paper. 25 μL of substrates A and B were added to each well. Luminance was measured using a luminometer (Mithras LB 940 Multimode Microplate Reader) after 10 minutes incubation. Dose-response curves were generated and the IC50 value was extrapolated by using the E-WorkBook Suite (ID Business Solutions Ltd., Guildford, UK). The IC50 was defined as the compound concentration (or conditioned media log dilution) at which HBsAg secretion was reduced by 50% compared to the no drug control.
The compounds according to formula I were tested for their capacity to inhibit HBsAg as described herein.

[1] = Hepatitis B virus, HepG2.2.15, HepG2.2.15 cells

`COCCCNC(=O)c1cc(F)cc(N2CCc3nc(-c4ncccn4)ncc3C2C)c1` (stereo not drawn) [Example 177, 3-fluoro-N-(3-methoxypropyl)-5-(5-methyl-2-pyrimidin-2-yl-7,8-dihydro-5H-pyrido[4,3-d]pyrimidin-6-yl)benzamide] gave a pIC50 [1] of 6.54.
With `CC1c2cnc(-c3ncccn3)nc2CCN1c1cc(F)cc(OCC(F)F)n1` (stereo not drawn) [Example 148, 6-[6-(2,2-difluoroethoxy)-4-fluoro-2-pyridyl]-5-methyl-2-pyrimidin-2-yl-7,8-dihydro-5H-pyrido[4,3-d]pyrimidine] the pIC50 [1] was 7.77.
For `COc1cc(F)nc(N2CCc3nc(-c4ncccn4)ncc3C2C)c1` (single isomer, unassigned; (+)) [Example 139, (+)-6-(6-fluoro-4-methoxy-2-pyridyl)-5-methyl-2-pyrimidin-2-yl-7,8-dihydro-5H-pyrido[4,3-d]pyrimidine], the pIC50 (HepG2.2.15 cells) was 5.80.
Compound `CC1c2cnc(-c3ncccn3)nc2CCN1c1cc(F)c(F)c(OCCCS(C)(=O)=O)c1` (single isomer, unassigned; (+)) [Example 48, (+)-6-[3,4-difluoro-5-(3-methylsulfonylpropoxy)phenyl]-5-methyl-2-pyrimidin-2-yl-7,8-dihydro-5H-pyrido[4,3-d]pyrimidine] has a pIC50 (HepG2.2.15 cells) of 6.74.
For `CC1c2cnc(-c3ncccn3)nc2CCN1c1cc(F)c(F)c(OCCCN2CCN(C(=O)OC(C)(C)C)CC2)c1` (stereo not drawn) [Example 108, tert-butyl 4-[3-[2,3-difluoro-5-(5-methyl-2-pyrimidin-2-yl-7,8-dihydro-5H-pyrido[4,3-d]pyrimidin-6-yl)phenoxy]propyl]piperazine-1-carboxylate], the pIC50 [1] was 7.08.
Compound `CC1c2cnc(-c3ncccn3)nc2CCN1c1cc(F)c(F)c(OCC(N)=O)c1` (single isomer, unassigned; (+)) [Example 67, (+)-2-[2,3-difluoro-5-[5-methyl-2-pyrimidin-2-yl-7,8-dihydro-5H-pyrido[4,3-d]pyrimidin-6-yl]phenoxy]acetamide] has a pIC50 (HepG2.2.15 cells) of 4.49.
Compound `COC(=O)CCCCCCCOc1cc(F)nc(N2CCc3nc(-c4ncccn4)ncc3C2C)c1` (stereo not drawn) [Example 167, methyl 8-[[2-fluoro-6-(5-methyl-2-pyrimidin-2-yl-7,8-dihydro-5H-pyrido[4,3-d]pyrimidin-6-yl)-4-pyridyl]oxy]octanoate] has a pIC50 [1] of 7.59.
In the case of `CC1c2cnc(-c3ncccn3)nc2CCN1c1cc(F)c(F)c(OCC2CCS(=O)(=O)C2)c1` (stereo not drawn) [Example 100], the pIC50 [1] was 7.02.
`COc1cc(F)cc(N2CCc3cc(-c4ncccn4)ncc3C2C)c1` (stereo not drawn) [Example 135, 2-(3-fluoro-5-methoxy-phenyl)-1-methyl-6-pyrimidin-2-yl-3,4-dihydro-1H-2,7-naphthyridine] gave a pIC50 [1] of 7.82.
Compound `COCCCN(C)S(=O)(=O)c1cc(F)cc(N2CCc3nc(-c4ncccn4)ncc3C2C)c1` (stereo not drawn) [Example 183, 3-fluoro-N-(3-methoxypropyl)-N-methyl-5-(5-methyl-2-pyrimidin-2-yl-7,8-dihydro-5H-pyrido[4,3-d]pyrimidin-6-yl)benzenesulfonamide] has a pIC50 [1] of 6.08.
`CC1c2cnc(-c3ncccn3)nc2CCN1c1cc(F)cc(OCC2CC2)c1` (stereo not drawn) [Example 145, 6-[3-(cyclopropylmethoxy)-5-fluoro-phenyl]-5-methyl-2-pyrimidin-2-yl-7,8-dihydro-5H-pyrido[4,3-d]pyrimidine] was tested, and the pIC50 [1] was 7.85.
Compound `COc1cc(N2CCc3nc(-c4ccccn4)ncc3C2C2CC2)cc(F)c1F` (stereo not drawn) [Example 18] has a pIC50 [1] of 6.44.
`CC1c2cnc(-c3ncccn3)nc2CCN1c1cc(F)c(F)c(OCCCC(=O)O)c1` (stereo not drawn) [Example 50, 4-[2,3-difluoro-5-(5-methyl-2-pyrimidin-2-yl-7,8-dihydro-5H-pyrido[4,3-d]pyrimidin-6-yl)phenoxy]butanoic acid] gave a pIC50 [1] of 5.95.
Compound `COc1cc(F)c(Cl)c(N2CCc3nc(-c4ncccn4)ncc3C2C)c1` (single isomer, unassigned; (-)) [Example 130, (−)-6-(2-chloro-3-fluoro-5-methoxy-phenyl)-5-methyl-2-pyrimidin-2-yl-7,8-dihydro-5H-pyrido[4,3-d]pyrimidine] has a pIC50 [1] of 6.17.
For `CC1c2cnc(-c3ncccn3)nc2CCN1c1cc(OCC2CCOCC2)cc(F)n1` (stereo not drawn) [Example 151, 6-[6-fluoro-4-(tetrahydropyran-4-ylmethoxy)-2-pyridyl]-5-methyl-2-pyrimidin-2-yl-7,8-dihydro-5H-pyrido[4,3-d]pyrimidine], the pIC50 [1] was 7.92.
`CC1c2cnc(-c3ncccn3)nc2CCN1c1cc(N(C)C)cc(F)n1` (stereo not drawn) [Example 196, 2-fluoro-N,N-dimethyl-6-(5-methyl-2-pyrimidin-2-yl-7,8-dihydro-5H-pyrido[4,3-d]pyrimidin-6-yl)pyridin-4-amine] showed a pIC50 (HepG2.2.15 cells) of 8.70.
`CC1c2cnc(-c3ccccn3)nc2CCN1c1cc(F)cc(OCC(F)F)n1` (stereo not drawn) [Example 193, 6-[6-(2,2-difluoroethoxy)-4-fluoro-2-pyridyl]-5-methyl-2-(2-pyridyl)-7,8-dihydro-5H-pyrido[4,3-d]pyrimidine] was tested, and the pIC50 [1] was 7.08.
`CC1c2cnc(-c3ncccn3)nc2CCN1c1cc(F)c(F)c(OCCC2CN(S(C)(=O)=O)C2)c1` (stereo not drawn) [Example 118, 6-[3,4-difluoro-5-[2-(1-methylsulfonylazetidin-3-yl)ethoxy]phenyl]-5-methyl-2-pyrimidin-2-yl-7,8-dihydro-5H-pyrido[4,3-d]pyrimidine] showed a pIC50 [1] of 7.89.
With `COc1cc(F)nc(N2CCc3nc(-c4ncccn4)ncc3C2C)c1` (stereo not drawn) [Example 127, 6-(6-Fluoro-4-methoxy-2-pyridyl)-5-methyl-2-pyrimidin-2-yl-7,8-dihydro-5H-pyrido[4,3-d]pyrimidine] the pIC50 (HepG2.2.15 cells) was 7.62.
Compound `COCCOc1cc(N2CCc3nc(-c4ccccn4)ncc3C2C)cc(F)c1F` (stereo not drawn) [Example 19, 6-[3,4-difluoro-5-(2-methoxyethoxy)phenyl]-5-methyl-2-(2-pyridyl)-7,8-dihydro-5H-pyrido[4,3-d]pyrimidine] has a pIC50 (HepG2.2.15 cells) of 7.38.
`CC1c2cnc(-c3ncccn3)nc2CCN1c1cc(F)c(F)c(OCCCN2CCN(C)CC2)c1` (stereo not drawn) [Example 101, 6-[3,4-difluoro-5-[3-(4-methylpiperazin-1-yl)propoxy]phenyl]-5-methyl-2-pyrimidin-2-yl-7,8-dihydro-5H-pyrido[4,3-d]pyrimidine] gave a pIC50 [1] of 6.95.
With `COc1cc(F)cc(N2CCc3nc(-c4ncccn4)ncc3C2C)n1` (stereo not drawn) [Example 142, 6-(4-fluoro-6-methoxy-2-pyridyl)-5-methyl-2-pyrimidin-2-yl-7,8-dihydro-5H-pyrido[4,3-d]pyrimidine] the pIC50 [1] was 7.40.
`CCCC1c2cnc(-c3ccccn3)nc2CCN1c1cc(F)c(F)c(OC)c1` (stereo not drawn) [Example 12, 6-(3,4-difluoro-5-methoxy-phenyl)-5-propyl-2-(2-pyridyl)-7,8-dihydro-5H-pyrido[4,3-d]pyrimidine] was tested, and the pIC50 (HepG2.2.15 cells) was 5.13.
Compound `CC1c2cnc(-c3ncccn3)nc2CCN1c1cc(F)c(F)c(OCCC2CCOC2)c1` (stereo not drawn) [Example 114, 6-[3,4-difluoro-5-(2-tetrahydrofuran-3-ylethoxy)phenyl]-5-methyl-2-pyrimidin-2-yl-7,8-dihydro-5H-pyrido[4,3-d]pyrimidine] has a pIC50 [1] of 7.74.
`CC1c2cnc(-c3ccccn3)nc2CCN1c1cc(F)c(F)c(OCC(=O)N2CCCC2)c1` (stereo not drawn) [Example 31, 2-[2,3-difluoro-5-[5-methyl-2-(2-pyridyl)-7,8-dihydro-5H-pyrido[4,3-d]pyrimidin-6-yl]phenoxy]-1-pyrrolidin-1-yl-ethanone] showed a pIC50 [1] of 6.81.
With `COC(=O)C(C(=O)OC)C1c2cnc(-c3ccccn3)nc2CCN1c1ccc(S(C)(=O)=O)cc1` (stereo not drawn) [Example 8] the pIC50 [1] was 4.71.
`CC1c2cnc(-c3ncccn3)nc2CCN1c1cc(F)c(F)c(OCCCS(=O)(=O)O)c1` (stereo not drawn) [Example 78, 3-[2,3-difluoro-5-(5-methyl-2-pyrimidin-2-yl-7,8-dihydro-5H-pyrido[4,3-d]pyrimidin-6-yl)phenoxy]propane-1-sulfonic acid] showed a pIC50 [1] of 6.01.
For `CCOC(=O)CC1c2cnc(-c3ccccn3)nc2CCN1c1cc(F)c(F)c(OC)c1` (stereo not drawn) [Example 36, ethyl 2-[6-(3,4-difluoro-5-methoxy-phenyl)-2-(2-pyridyl)-7,8-dihydro-5H-pyrido[4,3-d]pyrimidin-5-yl]acetate], the pIC50 [1] was 4.40.
`CC1c2cnc(-c3ncccn3)nc2CCN1c1cc(F)c(F)c(OCC(=O)N2CCOCC2)c1` (stereo not drawn) [Example 84, 2-[2,3-difluoro-5-(5-methyl-2-pyrimidin-2-yl-7,8-dihydro-5H-pyrido[4,3-d]pyrimidin-6-yl)phenoxy]-1-morpholino-ethanone] gave a pIC50 [1] of 6.58.
With `CC1c2cnc(-c3ncccn3)nc2CCN1c1cc(F)c(F)c(OCC2CN(C(=O)OC(C)(C)C)C2)c1` (stereo not drawn) [Example 132, tert-butyl 3-[[2,3-difluoro-5-(5-methyl-2-pyrimidin-2-yl-7,8-dihydro-5H-pyrido[4,3-d]pyrimidin-6-yl)phenoxy]methyl]azetidine-1-carboxylate] the pIC50 [1] was 7.52.
